Experimental findings from patent US11591634B1, “Forecasting bacterial survival-success and adaptive evolution through multiomics stress-response mapping and machine learning” (priority 2019, dated 2023) are described below.

The test system of assay [1] is Klebsiella pneumoniae AR497. The assay can be described thus: Fitness outcome under ciprofloxacin (growth curve assay). The format is cell-based. Conditions: K. pneumoniae AR497. The procedure: (§1) Since the single-timepoint variant of entropy is the most practical (in terms of data collection and cost), the generalizability of entropy to previously unseen species was evaluated using this model. RNA-Seq was performed at 120 min post exposure to 1 μg/mL of CIP. […] Single-timepoint entropy was computed for the transcriptome of each of these previously unseen isolates.
(§2) S. pneumoniae strain TIGR4 (T4; NC_003028.3) is a serotype 4 strain originally isolated from a patient^3,4, Taiwan-19F (19F; NC_012469.1) is a multi-drug resistant strain^5,6 and D39 (NC_008533) is a commonly used serotype 2 strain originally isolated from a patient about 90 years ago^7. Strain PG1 and PG19 were isolated from adults with pneumococcal bacteremia infection and included in the Pneumococcal Bacteremia Collection Nijmegen (PBCN)^8. All S. pneumoniae gene numbers refer to the T4 genome. Correspondence between homologous genes among S. pneumoniae strains and gene function annotations are described herewith. Escherichia coli strain AR538, Klebsiella pneumoniae strain AR497 and Salmonella enterica subsp Typhimurium strain AR635 were clinical isolates obtained from the Center of Disease Control (CDC). Staphylococcus aureus strain MN6 was kindly provided by George Sakoulas (Center of Immunity, Infection & Inflammation, UCSD School of Medicine). Unless otherwise specified, S. pneumoniae strains were cultivated in Todd Hewitt medium with 5% yeast extract (THY) with 5 μL/mL oxyrase (Oxyrase, Inc) or on sheep's blood agar plates (Northeastern Laboratories) at 37° C. with 5% CO2. A. baumannii, E. coll. K. pneumoniae, S. aureus and S. Typhimurium were cultured in Mueller Hinton broth II (Sigma) at 37° C. with 220 rpm constant shaking. Tn-Seq and RNA-Seq experiments of S. pneumoniae under nutrient-depletion and antibiotic conditions were performed in chemically defined medium (CDM)^9 and semi-defined minimal medium (SDMM)^10, respectively. RNA-Seq experiments for A. baumannii, S. Typhimurium, E. coll. K. pneumoniae, and S. aureus were performed in Mueller Hinton broth II. Single strain growth assays were performed at least three times using 96-well plates by taking OD600 measurements on a Tecan Infinite 200 PRO plate reader.

The test system of assay [2] is Staphylococcus aureus MN6. The description is as above. The format is cell-based. The note with it: S. aureus MN6. On the procedure: as §1, §2
A further assay has as its system S. pneumoniae T4. The experiment in a line: Fitness outcome under antibiotic exposure (growth curve assay). The format is cell-based, Streptococcus pneumoniae. The procedure:
(§3) To test whether a gene-panel model can be trained that predicts fitness for many different conditions, a large RNA-Seq dataset was generated for the human pathogen Streptococcus pneumoniae. […] These include cell wall synthesis inhibitors (CWSI), DNA synthesis inhibitors (DSI), protein synthesis inhibitors (PSI) and RNA synthesis inhibitors ((RSI); FIG. 1A, Tables 1 & 2). Each strain was exposed to each antibiotic for 2 to 4 hours and cells were harvested for RNA-Seq at various time points. As T4 and 19F are susceptible to most antibiotics used, the transcriptional profiles in the presence of antibiotics mostly represent cases of low fitness (FIG. 1A, sensitive strain, 1xMICWT). In order to find patterns that differentiate fitness outcomes, adapted strains were generated with increased fitness in the presence of antibiotics by serial passaging wildtype T4 and 19F in the presence of increasing amounts of antibiotics. Four independent adapted populations for each strain were selected on individual antibiotics. These adapted strains could grow in the presence of antibiotic at 1.5xMIC of the wildtype strain, albeit with a small growth defect (FIGS. 6A-6E & 6F). In parallel, RNA-Seq was performed on S. pneumoniae strains D39 and T4 in a chemically defined medium, and media from which either uracil, Glycine or L-Valine was removed, which are essential for D39 but not T4. This enabled the potential identification of a common stress signature that is shared between antibiotic exposure and nutrient deprivation, and across multiple strains. Lastly, D39 was adapted to grow in the absence of each individual nutrient, after which RNA-Seq was repeated for adapted clones (Table 1 lists all 24 strains, 67 populations and 267 RNA-Seq experiments).
as §2

A further assay deals with S. pneumoniae 19F. The description is as above. The format is cell-based, Streptococcus pneumoniae. On the procedure:
as §3, §2

Setting [3] is: 1 μg/mL ciprofloxacin, listed as CIP.
Where [4] appears, read: strain-specific 1xMIC of ciprofloxacin.

For the compound `O=C(O)c1cn(C2CC2)c2cc(N3CCNCC3)c(F)cc2c1=O` [Ciprofloxacin, ciprofloxacin], the Fitness entry in assay [1] (1 μg/mL ciprofloxacin) is listed as “High”; in assay [1] (setting [3]) it was “insensitive”; in assay [1] (1 μg/mL ciprofloxacin, listed as ciprofloxacin) it was “high fitness”; in assay [1] (setting [4]), “Low,”; in assay [2] (1 μg/mL ciprofloxacin) it was “High”; in assay [2] (setting [3]), “insensitive”. Besides, the Fitness entry in assay [2] (setting [4]) was “Low,”; in the assay with S. pneumoniae T4 (S. pneumoniae T4 wild-type, 1xMIC antibiotic, growth curves), “Low”; in the assay on S. pneumoniae 19F (S. pneumoniae 19F wild-type, growth curves), “Low”. Further, the “Survive (real survival outcome)” value in the assay on S. pneumoniae T4 (strain T4, Adapted FALSE, Concentration L (low)) is given as “FALSE”; with S. pneumoniae 19F (strain 19F, Adapted FALSE, Concentration L (low)), “FALSE”.
